Like-named read-outs stand apart in the source and are kept apart here.
Experiments:
[1] = biological target: T1, human IDO1 (Homo sapiens, UniProt P14902); test: HEK293 cell-based indoleamine 2,3-dioxygenase (IDO) assay; details: human IDO1/HEK293 cells, 20 hours incubation; read-out: IDO1 HEK Human IC50
T1 construct: expressed in transfected cells
Protocol: Assessment of inhibitor activity in HEK293 cell-based indoleamine 2,3-dioxygenase (IDO) assay.
HEK293 cells were transfected with a pCDNA-based mammalian expression vector harboring human IDO1 cDNA (NM 002164.2) by electroporation. They were cultured in medium (DMEM with 10% FBS) containing 1 mg/ml G418 for two weeks. Clones of HEK293 cells that stably expressed human IDO1 protein were selected and expanded for IDO inhibition assay.
The human IDO1/HEK293 cells were seeded at 10,000 cells per 50 μL per well with RPMI/phenol red free media contains 10% FBS in a 384-well black wall clear bottom tissue culture plate (Matrix Technologies LLC) 100 nL of certain concentration of compound was then added to each well using ECHO liquid handling systems. The cells were incubated for 20 hours in 37° C. incubator with 5% CO2.
The compound treatments were stopped by adding trichloroacetic acid (Sigma-Aldrich) to a final concentration at 0.2%. The cell plate was further incubated at 50° C. for 30 minute. The equal volume supernatant (20 μL) and 0.2% (w/v) Ehrlich reagent (4-dimethylaminobenzaldehyde, Sigma-Aldrich) in glacial acetic acid were mixed in a new clear bottom 384-well plate. This plate was then incubated at room temperature for 30 minute. The absorbance at 490 nm was measured on Envision plate reader.
Compound IC50 values were calculated using the counts of 500 nM of a reference standard treatment as one hundred percent inhibition, and counts of no compound but DMSO treatment as zero percent inhibition.
Activity for compounds described herein is provided in Table 1, wherein potency levels are provided as follows: (Potency: IDO IC50: A<0.01 μM; B<0.1 μM; C<10 μM)

[2] = biological target: indoleamine 2,3-dioxygenase (IDO) (Homo sapiens, UniProt P14902); test: HeLa cell-based indoleamine 2,3-dioxygenase (IDO) assay (kynurenine production, IFNγ-stimulated); details: HeLa cells
Sequence of indoleamine 2,3-dioxygenase (IDO) (P14902 whole entry): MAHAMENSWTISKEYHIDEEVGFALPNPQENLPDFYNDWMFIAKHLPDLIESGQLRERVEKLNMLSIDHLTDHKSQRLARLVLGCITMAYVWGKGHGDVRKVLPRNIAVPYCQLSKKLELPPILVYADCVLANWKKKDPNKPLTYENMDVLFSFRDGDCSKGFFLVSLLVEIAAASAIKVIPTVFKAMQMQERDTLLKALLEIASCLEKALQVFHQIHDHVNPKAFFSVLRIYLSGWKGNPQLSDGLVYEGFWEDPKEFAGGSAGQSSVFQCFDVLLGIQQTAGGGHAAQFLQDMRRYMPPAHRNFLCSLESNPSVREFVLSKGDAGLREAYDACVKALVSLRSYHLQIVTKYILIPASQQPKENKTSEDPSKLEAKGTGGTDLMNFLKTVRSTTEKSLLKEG

[3] = potency class, read-out: Patent Potency Hela IC50 A < 10 nM, B > 10 nM, C > 100 nM
[4] = IFNγ 25 ng/mL, 48 hour incubation, read-out: IDO Hela IC50

T1 sequence (P14902 whole entry): as above

Compound	IC50 [2, 3] [nM]	IC50 [2, 4] [nM]	further results
CC[C@@H](NC(=O)c1ccc(OC)nc1)[C@H]1CC[C@@H](c2ccnc3ccc(F)cc32)CC1 (single isomer, unassigned) [Example 10a, N-(1-(4-(6-Fluoroquinolin-4-yl)cyclohexyl)propyl)-6-methoxynicotinamide]	–	–	IC50 [1]: 224 nM
CC[C@@H](NC(=O)c1ccc(OC)nc1)[C@H]1CC[C@@H](c2ccnc3ccc(F)cc32)CC1 (single isomer, unassigned) [Example 10c, N-(1-(4-(6-Fluoroquinolin-4-yl)cyclohexyl)propyl)-6-methoxynicotinamide]	–	–	IC50 [1]: 55 nM
CC[C@@H](NC(=O)c1ccc(OC)nc1)[C@H]1CC[C@@H](c2ccnc3ccc(F)cc32)CC1 (single isomer, unassigned) [Example 10d, N-(1-(4-(6-Fluoroquinolin-4-yl)cyclohexyl)propyl)-6-methoxynicotinamide]	–	–	IC50 [1]: 37 nM
CCC(NC(=O)c1cnc(OC)nc1)C1CCC(c2ccnc3c(F)cc(F)cc23)CC1 (single isomer, unassigned) [Example 58d]	< 10	–	–
CC[C@@H](NC(=O)c1ccc(OC)nc1)[C@H]1CC[C@@H](c2ccnc3c(F)cccc32)CC1 (single isomer, unassigned) [Example 59a, N-(1-(4-(8-fluoroquinolin-4-yl)cyclohexyl)propyl)-6-methoxynicotinamide]	–	100	–
CC[C@@H](NC(=O)c1ccc(OC)nc1)[C@H]1CC[C@@H](c2ccnc3c(F)cccc32)CC1 (single isomer, unassigned) [Example 59c, N-(1-(4-(8-fluoroquinolin-4-yl)cyclohexyl)propyl)-6-methoxynicotinamide]	–	330	–
CC[C@@H](NC(=O)c1ccc(OC)nc1)[C@H]1CC[C@@H](c2ccnc3c(F)cccc32)CC1 (single isomer, unassigned) [Example 59d, N-(1-(4-(8-fluoroquinolin-4-yl)cyclohexyl)propyl)-6-methoxynicotinamide]	–	110	–
CC[C@@H](NC(=O)c1cnc(OC)nc1)[C@H]1CC[C@@H](c2ccnc3c(F)cccc32)CC1 (single isomer, unassigned) [Example 60a, N-(1-(4-(8-fluoroquinolin-4-yl)cyclohexyl)propyl)-2-methoxypyrimidine-5-carboxamide]	–	820	–
CC[C@@H](NC(=O)c1cnc(OC)nc1)[C@H]1CC[C@@H](c2ccnc3c(F)cccc32)CC1 (single isomer, unassigned) [Example 60b, N-(1-(4-(8-fluoroquinolin-4-yl)cyclohexyl)propyl)-2-methoxypyrimidine-5-carboxamide]	–	250	–
CC[C@@H](NC(=O)c1cnc(OC)nc1)[C@H]1CC[C@@H](c2ccnc3c(F)cccc32)CC1 (single isomer, unassigned) [Example 60c, N-(1-(4-(8-fluoroquinolin-4-yl)cyclohexyl)propyl)-2-methoxypyrimidine-5-carboxamide]	–	10	–
CC[C@@H](NC(=O)c1cnc(OC)nc1)[C@H]1CC[C@@H](c2ccnc3c(F)cccc32)CC1 (single isomer, unassigned) [Example 60d, N-(1-(4-(8-fluoroquinolin-4-yl)cyclohexyl)propyl)-2-methoxypyrimidine-5-carboxamide]	–	170	–
C[C@@H](NC(=O)c1ccc(O)nc1)[C@H]1CC[C@@H](c2ccnc3ccc(F)cc32)CC1 [Example 3, N-((R)-1-((1s,4S)-4-(6-Fluoroquinolin-4-yl)cyclohexyl)ethyl)-6-hydroxynicotinamide]	–	–	IC50 [1]: 252 nM
COCCOc1ccc(-c2ccc(C(=O)N[C@H](C)[C@H]3CC[C@@H](c4ccnc5ccc(F)cc54)CC3)cn2)cc1 [Example 6]	–	–	IC50 [1]: 488 nM
COCC(NC(=O)c1ccc(OC)nc1)C1CCC(c2ccnc3ccc(F)cc23)CC1 (stereo not drawn) [Example 14a, N-(1-((1s,4s)-4-(6-Fluoroquinolin-4-yl)cyclohexyl)-2-methoxyethyl)-6-methoxynicotinamide]	< 10	–	–
COCC(NC(=O)c1ccc(OC)nc1)C1CCC(c2ccnc3ccc(F)cc23)CC1 (stereo not drawn) [Example 14b, N-(1-((1s,4s)-4-(6-Fluoroquinolin-4-yl)cyclohexyl)-2-methoxyethyl)-6-methoxynicotinamide]	–	10	–
CCC(NC(=O)c1ccc(OC)nc1)C1CCC(c2ccnc(OC)c2F)CC1 (stereo not drawn) [Example 22, N-(1-(4-(3-Fluoro-2-methoxypyridin-4-yl)cyclohexyl)propyl)-6-methoxynicotinamide]	> 100	–	–
CCC(NC(=O)c1cnc(C)nc1)C1CCC(c2ccnc(OC)c2F)CC1 (stereo not drawn) [Example 23, N-(1-(4-(3-Fluoro-2-methoxypyridin-4-yl)cyclohexyl)propyl)-2-methylpyrimidine-5-carboxamide]	–	110	–

Now from value to compound, other results behind:

IC50 [2, 3] [nM]	IC50 [2, 4] [nM]	Compound	further results
–	670	CC[C@H](NC(=O)c1cnc(C)nc1)[C@H]1CC[C@H](c2ccnc3c(F)cccc32)CC1 (single isomer, unassigned) [Example 61b, N-(1-(4-(8-fluoroquinolin-4-yl)cyclohexyl)propyl)-2-methylpyrimidine-5-carboxamide]	–
> 100	–	CC[C@H](NC(=O)c1cnc(C)nc1)[C@H]1CC[C@H](c2ccnc3c(F)cccc32)CC1 (single isomer, unassigned) [Example 61c, N-(1-(4-(8-fluoroquinolin-4-yl)cyclohexyl)propyl)-2-methylpyrimidine-5-carboxamide]	–
–	20	CC[C@H](NC(=O)c1cnc(C)nc1)[C@H]1CC[C@H](c2ccnc3c(F)cccc32)CC1 (single isomer, unassigned) [Example 61d, N-(1-(4-(8-fluoroquinolin-4-yl)cyclohexyl)propyl)-2-methylpyrimidine-5-carboxamide]	–
–	70	COc1ccc(C(=O)NC(C)C2(O)CCC(c3ccnc4ccc(F)cc34)CC2)cn1 (single isomer, unassigned) [Example 62a, N-(1-((1r,4r)-4-(6-fluoroquinolin-4-yl)-1-hydroxycyclohexyl)ethyl)-6-methoxynicotinamide]	–
–	20	COc1ccc(C(=O)NC(C)C2(O)CCC(c3ccnc4ccc(F)cc34)CC2)cn1 (single isomer, unassigned) [Example 62b, N-(1-((1r,4r)-4-(6-fluoroquinolin-4-yl)-1-hydroxycyclohexyl)ethyl)-6-methoxynicotinamide]	–
> 100	–	CCC(NC(=O)c1ccc(=O)[nH]c1)C1CCC(c2ccnc(OC)c2C(F)F)CC1 (single isomer, unassigned) [Example 63-1, N-(1-((1s,4s)-4-(3-(difluoromethyl)-2-methoxypyridin-4-yl)cyclohexyl)propyl)-6-oxo-1,6-dihydropyridine-3-carboxamide]	–
> 100	–	CCC(NC(=O)c1ccc(OC)nc1)C1CCC(c2cc[nH]c(=O)c2C(F)F)CC1 (single isomer, unassigned) [Example 64-1, N-(1-((1s,4s)-4-(3-(difluoromethyl)-2-oxo-1,2-dihydropyridin-4-yl)cyclohexyl)propyl)-6-methoxynicotinamide]	–
> 100	–	[2H]C([2H])([2H])Oc1ccc(C(=O)NC(CC)C2CCC(c3ccnc(OC)c3C(F)F)CC2)cn1 (single isomer, unassigned) [Example 66-1, N-(1-((1s,4s)-4-(3-(difluoromethyl)-2-methoxypyridin-4-yl)cyclohexyl)propyl)-6-(methoxy-d3)nicotinamide]	–
< 10	–	[2H]C([2H])([2H])Oc1ccc(C(=O)NC(CC)C2CCC(c3ccnc(OC)c3C(F)F)CC2)cn1 (single isomer, unassigned) [Example 66-2, N-(1-((1s,4s)-4-(3-(difluoromethyl)-2-methoxypyridin-4-yl)cyclohexyl)propyl)-6-(methoxy-d3)nicotinamide]	–
> 10	–	CCC(NC(=O)c1ccc(OC)nc1)C1CCC(c2ccnc(F)c2C)CC1 (single isomer, unassigned) [Example 68-1, N-(1-((1r,4r)-4-(2-Fluoro-3-methylpyridin-4-yl)cyclohexyl)propyl)-6-methoxynicotinamide]	–
> 100	–	CCC(NC(=O)c1ccc(OC)nc1)C1CCC(c2ccnc(F)c2C)CC1 (single isomer, unassigned) [Example 68-2, N-(1-((1r,4r)-4-(2-Fluoro-3-methylpyridin-4-yl)cyclohexyl)propyl)-6-methoxynicotinamide]	–
> 10	–	CCC(NC(=O)c1ccc(=O)[nH]c1)[C@H]1CC[C@@H](c2ccnc(OC)c2C(F)F)CC1 (stereo partly drawn) [Example 63-2, N-(1-((1s,4s)-4-(3-(difluoromethyl)-2-methoxypyridin-4-yl)cyclohexyl)propyl)-6-oxo-1,6-dihydropyridine-3-carboxamide]	–
> 100	–	CCC(NC(=O)c1ccc(OC)nc1)[C@H]1CC[C@@H](c2cc[nH]c(=O)c2C(F)F)CC1 (stereo partly drawn) [Example 64-2, N-(1-((1s,4s)-4-(3-(difluoromethyl)-2-oxo-1,2-dihydropyridin-4-yl)cyclohexyl)propyl)-6-methoxynicotinamide]	–

Source: patent US11066392B2, “Inhibitors of indoleamine 2,3-dioxygenase and methods of their use” (BRISTOL-MYERS SQUIBB COMPANY, priority 2017, dated 2021)
